In patent publication EP2213286A1, “N-(PHENYL OR PYRIDYL)PRENYLAMINE DERIVATIVES FOR THE TREATMENT OF OBESITY, DIABETES AND CARDIOVASCULAR DISEASES” (Zeltia, S.A., priority 2009, dated 2010):

Tested on: adiponectin promoter
Assay: cells
Type: cell-based, human
Details: for concentration at which the greatest transactivation was achieved: dose-response curve of commercial activator on the target promoter
Source text: The following protocol has been followed for the purpose of analyzing the potential therapeutic activity against obesity, type 2 diabetes mellitus and atherosclerosis (ODA metabolic diseases) of the compounds 1-4: • generating cell lines which have stably integrated human promoters of key genes in the development of ODA diseases; • amplifying the human promoter sequence of the target genes starting from commercial human genomic DNA; • cloning the promoter into a suitable vector which allows knowing the transcriptional activity of the promoter sequence, using the luciferase gene as a reporter gene; • generating stable cell lines for each of the promoters cloned into the reporter vectors; • carrying out the screening test with the compounds of the invention on the stable cell lines; • suitably validating the effect obtained with a certain compound which can modify the transcriptional activity of the promoter.
The selected cell line is C2C12, corresponding to myoblasts from mouse muscle tissue.
The luciferase activity is measured according to the following protocol: • a) 50000 and 1200000 cells/well (and in duplicate) are seeded in a P24 plate. • b) After approximately 24 hours, the medium is removed from the cells and each well is washed with PBS 1x (because DMEM interferes in the measurement of the activity of the reporter gene) • c) 100 µl of luciferase developing reagent are added in each cell (Bright-GloTM Luciferase Assay system- Promega). This reagent carries the reporter gene substrate and luminescence is generated as the product of the enzymatic reaction. The cells which have acquired the reporter gene, and therefore the target promoter, will be luminescent upon being in the presence of said substrate. To record the measurement of luciferase activity, the plate is shaken for 30 seconds right after adding the developing reagent and after 2 minutes, the volume is collected and transferred to a 96-well plate (P96), which can be read in an illuminometer. • d) The suitable luminescence program is selected, such that the reading lasts 5 seconds per well, and the arbitrary luminescence units are recorded for each obtained clone or, in other words, for each stable cell line.
The reaction substrate is photosensitive, therefore it is important to keep the plate in darkness from the time the reagent is added until the luciferase activity is recorded or read in each experiment. Carrying out the screening test: The clones used in the screening are: C2C12 Adipo (adiponectin promoter), C2C12 UCP3 (UCP3 promoter), C2C12 AdR1 (adiponectin receptor 1 promoter) and C2C12 Nmu (neuromedin promoter).
Before any screening experiment, the suitable number of cells for carrying out such experiments must first be provided. To that end, 2 T75 are usually seeded (with approximately 1x10^6 cells in each bottle), such that after four days, the cells have reached confluence and are ready for the screening protocol detailed below to be carried out. • 1. Day 1: 30000 cells per well are seeded in white P96 plates; these plates allow amplifying the luminescence signal and improving the reading. The cells are grown in 100 µl of hygromycin-free medium. • 2. Day 2: 24 hours after the seeding, the cells are stimulated with compounds 1-4. Compounds 1-4 are assayed in duplicate at 1, 5 and 10 µg/ml concentrations, by means of the screening method shown in the following diagram: [formula] ? In the indicated positions, the baseline transcriptional activity of the promoters to be studied is recorded in the presence of the medium in which compounds 1-4 (vehicle) are dissolved. ? In the indicated positions, the transcriptional activity of the promoters to be studied is recorded in the presence of a known commercial activator of the target promoter. […]

[1] = Mus musculus, C2C12, 48 h, read-out: activation ratio

Compound | fold induction at 0.01 µM [1] | fold induction at 1 µM [1] | fold induction at 5 µM [1] | fold induction at 15 µM [1] | fold induction at 25 µM [1] | fold induction at 50 µM [1] | fold induction at 200 µM [1] | fold induction at 400 µM [1] | fold induction at 0.5 µM [1] | fold induction at 10 µM [1] | fold induction at 100 µM [1] | fold induction at 20 µM [1] | concentration at which the greatest transactivation was achieved [µM]
CC(C)=CCNc1cccc(C(=O)O)c1 [Compound 2, 3-(3-methyl-but-2-enylamino)-benzoic acid] | 1.05 | 1.69 | 2.78 | 3.43 | 3.57 | 3.66 | 3.04 | 1.81 |  |  |  |  | 
COC(=O)c1cccc(NCC=C(C)C)c1 [Compound 3, 3-(3-methyl-but-2-enylamino)-benzoic acid methyl ester] |  | 1.26 | 1.98 |  | 2.46 | 2.61 | 1.92 |  | 1.07 | 1.85 | 2.34 |  | 
COC(=O)c1cccc(NCC=C(C)CCC=C(C)C)c1 [Compound 4, 3-(3,7-dimethyl-octa-2,6-dienylamino)-benzoic acid methyl ester] |  | 2.59 | 3.53 |  | 3.47 | 3.28 | 1.78 |  | 2.32 | 3.71 | 2.53 |  | 
O=c1c(-c2ccc(O)cc2)coc2cc(O)cc(O)c12 [Genistein, genistein, reference compound] |  | 1.47 | 2.25 |  |  | 1.97 | 1.59 |  |  | 3.59 | 1.75 | 3.05 | 20
COC(=O)c1ccnc(NCC=C(C)CCC=C(C)C)c1 [Compound 1, 2-(3,7-dimethyl-octa-2,6-dienylamino)-isonicotinic acid methyl ester] |  | 2.02 | 3.33 |  | 4.05 | 3.92 | 2.57 |  | 1.67 | 4.07 | 3.06 |  | 
CN(CCOc1ccc(CC2SC(=O)NC2=O)cc1)c1ccccn1 (stereo not drawn) [Rosiglitazone, reference compound] |  |  |  |  |  |  |  |  |  |  |  |  | 20
O=c1c(-c2ccc(O)cc2)coc2cc(O)ccc12 [Daidzein, daidzein, reference compound] |  | 1.68 | 3.03 |  |  | 4.05 |  |  |  | 3.76 | 3.71 | 4.04 | 20
